Reference: patent US11173151B2, “Substituted triazole derivatives and uses thereof” (BAYER AKTIENGESELLSCHAFT, priority 2017, dated 2021)

Experiments:
human V1a receptor = target: T1, human V1a receptor (Homo sapiens, UniProt P37288); experiment: Cellular in vitro assay for determining vasopressin receptor activity, V1a receptor cell line (CHO, aequorin luminescence); assay type: cell-based; details: for IC50: CHO cell line transfected with human V1a receptor, [Arg]-vasopressin at EC50 concentration, read-out: IC50 hV1a; for ratio IC50 hV2/hV1a: selectivity ratio IC50 hV2 / IC50 hV1a
T1 construct: expressed in transfected cells; host or cells: CHO K1 (ATCC), also stably transfected with a modified aequorin
Protocol: (§1) B-1. Cellular In Vitro Assay for Determining Vasopressin Receptor Activity
(§2) The identification of agonists and antagonists of the V1a and V2 vasopressin receptors from humans, rats and dogs as well as the quantification of the activity of the compounds of the invention is carried out using recombinant cell lines. These cell lines originally derive from a hamster's ovary epithelial cell (Chinese Hamster Ovary, CHO K1, ATCC: American Type Culture Collection, Manassas, Va. 20108, USA). The test cell lines constitutively express the human, rat or dog V1a or V2 receptors. In case of the Gαq-coupled V1a receptors, cells are also stably transfected with a modified form of the calcium-sensitive photoproteins aequorin (human and rat V1a) or obelin (dog V1a), which, after reconstitution with the cofactor coelenterazine, emit light when there are increases in free calcium concentrations [Rizzuto R, Simpson A W, Brini M, Pozzan T, Nature 358, 325-327 (1992); Illarionov B A, Bondar V S, Illarionova V A, Vysotski E S, Gene 153 (2), 273-274 (1995)]. The resulting vasopressin receptor cells react to stimulation of the recombinantly expressed V1a receptors by intracellular release of calcium ions, which can be quantified by the resulting photoprotein luminescence. The Gs-coupled V2 receptors are stably transfected into cell lines expressing the gene for firefly luciferase under control of a CRE-responsible promoter. Activation of V2 receptors induces the activation of the CRE-responsive promoter via cAMP increase, thereby inducing the expression of firefly luciferase. The light emitted by photoproteins of V1a cell lines as well as the light emitted by firefly luciferase of V2 cell lines corresponds to the activation or inhibition of the respective vasopressin receptor. The bioluminescence of the cell lines is detected using a suitable luminometer [Milligan G, Marshall F, Rees S, Trends in Pharmacological Sciences 17, 235-237 (1996)].
Vasopressin V1a Receptor Cell Lines:
On the day before the assay, the cells are plated out in culture medium (DMEM/F12, 2% FCS, 2 mM glutamine, 10 mM HEPES, 5 μg/ml coelenterazine) in 384-well microtiter plates and kept in a cell incubator (96% humidity, 5% v/v CO2, 37° C.). On the day of the assay, test compounds in various concentrations are placed for 10 minutes in the wells of the microtiter plate before the agonist [Arg]-vasopressin at EC50 concentration is added. The resulting light signal is measured immediately in a luminometer.
(§3) Table 1A below lists individual IC50 values for the compounds of the invention (including racemic mixtures as well as separated enantiomers) that were obtained from cell lines transfected with the human V1a or V2 receptor: […]

human V2 receptor = target: T2, human V2 receptor (Homo sapiens, UniProt P30518); experiment: Cellular in vitro assay for determining vasopressin receptor activity, V2 receptor cell line (CHO, CRE-luciferase); assay type: cell-based; details: CHO cell line transfected with human V2 receptor; [Arg8]-vasopressin at EC50 concentration, 3 hours; read-out: IC50 hV2
T2 construct: expressed in transfected cells; host or cells: CHO K1 (ATCC) expressing firefly luciferase under a CRE-responsive promoter
Protocol: as §1, §2
Vasopressin V2 Receptor Cell Lines:
On the day before the assay, the cells are plated out in culture medium (DMEM/F12, 2% FCS, 2 mM glutamine, 10 mM HEPES) in 384-well microtiter plates and kept in a cell incubator (96% humidity, 5% v/v CO2, 37° C.). On the day of the assay, test compounds in various concentrations and the agonist [Arg^8]-vasopressin at EC50 concentration are added together to the wells, and plates are incubated for 3 hours in a cell incubator. Upon addition of the cell lysis reagent Triton™ and the substrate luciferin, luminescence of firefly luciferase is measured in a luminometer.
as §3

T1 sequence (P37288 whole entry): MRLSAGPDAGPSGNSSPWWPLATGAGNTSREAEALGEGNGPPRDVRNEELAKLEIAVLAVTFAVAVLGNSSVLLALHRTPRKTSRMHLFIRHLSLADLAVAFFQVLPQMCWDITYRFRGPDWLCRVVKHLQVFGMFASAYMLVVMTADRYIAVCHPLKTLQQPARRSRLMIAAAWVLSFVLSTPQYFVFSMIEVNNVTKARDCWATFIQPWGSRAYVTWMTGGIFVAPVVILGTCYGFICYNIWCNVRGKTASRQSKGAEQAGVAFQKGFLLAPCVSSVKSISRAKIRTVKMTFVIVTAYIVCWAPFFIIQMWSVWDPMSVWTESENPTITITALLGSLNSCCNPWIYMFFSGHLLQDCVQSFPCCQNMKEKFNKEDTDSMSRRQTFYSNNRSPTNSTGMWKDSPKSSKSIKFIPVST
T2 sequence (P30518 whole entry): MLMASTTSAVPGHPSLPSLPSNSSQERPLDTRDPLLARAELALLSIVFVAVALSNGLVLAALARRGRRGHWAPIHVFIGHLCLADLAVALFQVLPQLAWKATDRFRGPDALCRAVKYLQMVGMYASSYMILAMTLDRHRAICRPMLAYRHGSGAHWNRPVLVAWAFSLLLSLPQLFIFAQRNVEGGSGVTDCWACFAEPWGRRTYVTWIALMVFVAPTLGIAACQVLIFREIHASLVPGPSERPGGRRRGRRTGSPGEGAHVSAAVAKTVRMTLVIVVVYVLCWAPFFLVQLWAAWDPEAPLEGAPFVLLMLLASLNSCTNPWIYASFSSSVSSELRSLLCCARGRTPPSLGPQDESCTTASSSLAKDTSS

SMILES	IC50 (human V1a receptor) [nM]	ratio IC50 hV2/hV1a (human V1a receptor)	IC50 (human V2 receptor) [nM]
CC1(CNC(=O)c2ccccc2-n2cnc(Cn3nc(-c4ccc(Cl)cc4)n(C[C@H](O)C(F)(F)F)c3=O)n2)CCCO1 (mixture of isomers) [Example 202, 2-[3-({3-(4-Chlorophenyl)-5-oxo-4-[(2S)-3,3,3-trifluoro-2-hydroxypropyl]-4,5-dihydro-1H-1,2,4-triazol-1-yl}methyl)-1H-1,2,4-triazol-1-yl]-N-{[2-methyltetrahydrofuran-2-yl]methyl}benzamide]	4.3	0.9	4.05
O=C(NC1CCOC1)c1ccccc1-n1cnc(Cn2nc(-c3ccc(Cl)cc3)n(C[C@H](O)C(F)(F)F)c2=O)n1 (mixture of isomers) [Example 208, 2-[3-({3-(4-Chlorophenyl)-5-oxo-4-[(2S)-3,3,3-trifluoro-2-hydroxypropyl]-4,5-dihydro-1H-1,2,4-triazol-1-yl}methyl)-1H-1,2,4-triazol-1-yl]-N-[tetrahydrofuran-3-yl]benzamide]	2.4	39.8	95.5
O=C(NC1CCOC1=O)c1ccccc1-n1cnc(Cn2nc(-c3ccc(Cl)cc3)n(C[C@H](O)C(F)(F)F)c2=O)n1 (mixture of isomers) [Example 231, 2-[3-({3-(4-Chlorophenyl)-5-oxo-4-[(2S)-3,3,3-trifluoro-2-hydroxypropyl]-4,5-dihydro-1H-1,2,4-triazol-1-yl}methyl)-1H-1,2,4-triazol-1-yl]-N-[(3S)-2-oxotetrahydrofuran-3-yl]benzamide]	3.05	254.1	775
COC1CCCN(C(=O)c2ccccc2-n2cnc(Cn3nc(-c4ccc(Cl)cc4)n(C[C@H](O)C(F)(F)F)c3=O)n2)C1 (mixture of isomers) [Example 269, 5-(4-Chlorophenyl)-2-{[1-(2-{[3-methoxypiperidin-1-yl]carbonyl}phenyl)-1H-1,2,4-triazol-3-yl]methyl}-4-[(2S)-3,3,3-trifluoro-2-hydroxypropyl]-2,4-dihydro-3H-1,2,4-triazol-3-one]	2.5	422.0	1050
CC1CCCN(C(=O)c2ccccc2-n2cnc(Cn3nc(-c4ccc(Cl)cc4)n(C[C@H](O)C(F)(F)F)c3=O)n2)C1C (mixture of isomers) [Example 275, 5-(4-Chlorophenyl)-2-[(1-{2-[(2,3-dimethylpiperidin-1-yl)carbonyl]phenyl}-1H-1,2,4-triazol-3-yl)methyl]-4-[(2S)-3,3,3-trifluoro-2-hydroxypropyl]-2,4-dihydro-3H-1,2,4-triazol-3-one]	2.55	484.3	1240
CC1COCCN1C(=O)c1ccccc1-n1cnc(Cn2nc(-c3ccc(Cl)cc3)n(C[C@H](O)C(F)(F)F)c2=O)n1 (mixture of isomers) [Example 282, 5-(4-Chlorophenyl)-2-{[1-(2-{[3-methylmorpholin-4-yl]carbonyl}phenyl)-1H-1,2,4-triazol-3-yl]methyl}-4-[(2S)-3,3,3-trifluoro-2-hydroxypropyl]-2,4-dihydro-3H-1,2,4-triazol-3-one]	2.35	1000.0	2350
CC1CN(C(=O)c2ccccc2-n2cnc(Cn3nc(-c4ccc(Cl)cc4)n(C[C@H](O)C(F)(F)F)c3=O)n2)CCO1 (mixture of isomers) [Example 283, 5-(4-Chlorophenyl)-2-{[1-(2-{[2-methylmorpholin-4-yl]carbonyl}phenyl)-1H-1,2,4-triazol-3-yl]methyl}-4-[(2S)-3,3,3-trifluoro-2-hydroxypropyl]-2,4-dihydro-3H-1,2,4-triazol-3-one]	6.05	1239.7	7500
CC(O)CNC(=O)c1ccccc1-n1cnc(Cn2nc(-c3ccc(Cl)cc3)n(C[C@H](O)C(F)(F)F)c2=O)n1 (mixture of isomers) [Example 292, 2-[3-({3-(4-Chlorophenyl)-5-oxo-4-[(2S)-3,3,3-trifluoro-2-hydroxypropyl]-4,5-dihydro-1H-1,2,4-triazol-1-yl}methyl)-1H-1,2,4-triazol-1-yl]-N-[2-hydroxypropyl]benzamide]	2.95	21.9	64.5

The remaining compounds from weak to strong by IC50 (human V1a receptor), led by results:

IC50 (human V1a receptor) [nM]	ratio IC50 hV2/hV1a (human V1a receptor)	IC50 (human V2 receptor) [nM]	SMILES
78.5	129.3	10100	CC1C(=O)NCCN1C(=O)c1ccccc1-n1cnc(Cn2nc(-c3ccc(Cl)cc3)n(C[C@H](O)C(F)(F)F)c2=O)n1 (mixture of isomers) [Example 280, 4-{2-[3-({3-(4-Chlorophenyl)-5-oxo-4-[(2S)-3,3,3-trifluoro-2-hydroxypropyl]-4,5-dihydro-1H-1,2,4-triazol-1-yl}methyl)-1H-1,2,4-triazol-1-yl]benzoyl}-3-methylpiperazin-2-one]
22	438.6	9650	CN1CCC(N(C)C(=O)c2ccccc2-n2cnc(Cn3nc(-c4ccc(Cl)cc4)n(C[C@H](O)C(F)(F)F)c3=O)n2)C1 (mixture of isomers) [Example 274, 2-[3-({3-(4-Chlorophenyl)-5-oxo-4-[(2S)-3,3,3-trifluoro-2-hydroxypropyl]-4,5-dihydro-1H-1,2,4-triazol-1-yl}methyl)-1H-1,2,4-triazol-1-yl]-N-methyl-N-[1-methylpyrrolidin-3-yl]benzamide]
12.6	11.5	145	CC1CCCC(NC(=O)c2ccccc2-n2cnc(Cn3nc(-c4ccc(Cl)cc4)n(C[C@H](O)C(F)(F)F)c3=O)n2)C1 (mixture of isomers) [Example 224, 2-[3-({3-(4-Chlorophenyl)-5-oxo-4-[(2S)-3,3,3-trifluoro-2-hydroxypropyl]-4,5-dihydro-1H-1,2,4-triazol-1-yl}methyl)-1H-1,2,4-triazol-1-yl]-N-(3-methylcyclohexyl)benzamide]
5.05	277.2	1400	O=C(NCC(O)CO)c1ccccc1-n1cnc(Cn2nc(-c3ccc(Cl)cc3)n(C[C@H](O)C(F)(F)F)c2=O)n1 (mixture of isomers) [Example 297, 2-[3-({3-(4-Chlorophenyl)-5-oxo-4-[(2S)-3,3,3-trifluoro-2-hydroxypropyl]-4,5-dihydro-1H-1,2,4-triazol-1-yl}methyl)-1H-1,2,4-triazol-1-yl]-N-[2,3-dihydroxypropyl]benzamide]
2.1	685.7	1440	CC1SCCN1C(=O)c1ccccc1-n1cnc(Cn2nc(-c3ccc(Cl)cc3)n(C[C@H](O)C(F)(F)F)c2=O)n1 (mixture of isomers) [Example 270, 5-(4-Chlorophenyl)-2-{[1-(2-{[2-methyl-1,3-thiazolidin-3-yl]carbonyl}phenyl)-1H-1,2,4-triazol-3-yl]methyl}-4-[(2S)-3,3,3-trifluoro-2-hydroxypropyl]-2,4-dihydro-3H-1,2,4-triazol-3-one]
1.25	92.0	115	CCC(C)NC(=O)c1ccccc1-n1cnc(Cn2nc(-c3ccc(Cl)cc3)n(C[C@H](O)C(F)(F)F)c2=O)n1 (mixture of isomers) [Example 204, N-[Butan-2-yl]-2-[3-({3-(4-chlorophenyl)-5-oxo-4-[(2S)-3,3,3-trifluoro-2-hydroxypropyl]-4,5-dihydro-1H-1,2,4-triazol-1-yl}methyl)-1H-1,2,4-triazol-1-yl]benzamide]
